Molecules are shown by their SMILES. A value given as a limit tells only on which side of the number the result lay.

Assay [1] has as its system TGF-β-stimulated SMAD3 phosphorylation in BEAS-2B cells. Description: Cellular ALK5 potency assay, inhibition of TGF-β stimulated pSMAD3 formation in BEAS-2B cells. It counts as cell-based. The following applies: Homo sapiens, inhibition of TGF-β (10 ng/mL) stimulated pSMAD3 formation, 1 hour compound incubation, read-out: BEAS2B pIC50 (converted). In short, it runs like this: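 Phospho-SMAD3 was quantified by AlphaLISA in lysates of human lung epithelial BEAS-2B cells. Compound was added 1 h (37 °C, HEPES/BSA-supplemented HBSS) before a 30 min challenge with 10 ng/mL TGF-β. Values are pIC50 relative to stimulated cells without compound.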

The target in assay [2] is T1, recombinant human ALK5 (TGF-βR1) protein (Homo sapiens, UniProt P36897).
T1 construct: purchased Life Technologies PR9075A
T1 sequence (P36897 34-503): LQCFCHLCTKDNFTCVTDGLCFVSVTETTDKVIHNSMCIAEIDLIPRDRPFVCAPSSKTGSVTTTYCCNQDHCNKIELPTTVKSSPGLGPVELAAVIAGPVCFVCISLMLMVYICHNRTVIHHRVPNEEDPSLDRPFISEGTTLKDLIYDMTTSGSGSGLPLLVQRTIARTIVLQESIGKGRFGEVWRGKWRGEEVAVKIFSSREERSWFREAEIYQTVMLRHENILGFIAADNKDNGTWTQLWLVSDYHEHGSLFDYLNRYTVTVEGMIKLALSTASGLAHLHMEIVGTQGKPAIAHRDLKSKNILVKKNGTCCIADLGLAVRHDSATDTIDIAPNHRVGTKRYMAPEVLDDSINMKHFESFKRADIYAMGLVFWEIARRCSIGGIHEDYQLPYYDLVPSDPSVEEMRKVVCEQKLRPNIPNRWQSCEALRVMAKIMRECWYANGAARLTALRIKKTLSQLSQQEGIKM
Briefly: Biochemical ALK5 (TGF-βR1) assay to measure pKi (LANCE Ultra ULight kinase assay). The following applies: apparent pKi, converted from pIC50 using the Cheng-Prusoff equation. In short, it runs like this: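 TR-FRET kinase format: compound dose range 10 μM–25 pM equilibrated 60 min with human ALK5 and ULight-labelled topoisomerase 2α peptide in HEPES/MgCl2 buffer pH 7.5 with DTT. Reaction started with ATP (125 μM stock, 5× final), 60 min at 37° C, stopped with EDTA/Eu-anti-phospho antibody; pKi derived from pIC50 via Cheng-Prusoff.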
(In general: In TR-FRET formats the signal depends on donor and acceptor labels being close together.)

Consider `CC1CN(c2cnc3ccc(-c4c[nH]nc4-c4cc(Cl)ccc4F)nc3c2)CC(C)N1CCN` (stereo not drawn) [Compound 1-122, 2-[4-[6-[3-(5-chloro-2-fluoro-phenyl)-1H-pyrazol-4-yl]-1,5-naphthyridin-3-yl]-2,6-dimethyl-piperazin-1-yl]ethanamine], for which the IC50 in assay [1] was 25.1 to 158 nM. Also, the Ki in assay [2] is 0.0398 to 0.316 nM.
Consider `Fc1ccc(Cl)cc1-c1n[nH]cc1-c1ccc2ncc(-c3nnn4c3NCC4)cc2n1` [Compound 1-123, 2-[3-(5-chloro-2-fluoro-phenyl)-1H-pyrazol-4-yl]-7-(5,6-dihydro-4H-imidazo[1,2-c]triazol-3-yl)-1,5-naphthyridine], for which the IC50 in assay [1] is 25.1 to 158 nM. In assay [2], the Ki was 0.0398 to 0.316 nM.
For `Fc1ccc(Cl)cc1-c1n[nH]cc1-c1ccc2ncc(-c3cnc4n3CCCN4)cc2n1` [Compound 1-124, 2-[3-(5-chloro-2-fluoro-phenyl)-1H-pyrazol-4-yl]-7-(5,6,7,8-tetrahydroimidazo[1,2-a]pyrimidin-3-yl)-1,5-naphthyridine], in assay [1], the IC50 was 25.1 to 158 nM. In addition, in assay [2], the Ki was 0.0398 to 0.316 nM.
For `Fc1ccc(Cl)cc1-c1n[nH]cc1-c1ccc2ncc(-c3[nH]nc4c3CCN4)cc2n1` [Compound 1-125, 2-[3-(5-chloro-2-fluoro-phenyl)-1H-pyrazol-4-yl]-7-(2,4,5,6-tetrahydropyrrolo[2,3-c]pyrazol-3-yl)-1,5-naphthyridine], the IC50 in assay [1] was 25.1 to 158 nM. Further, in assay [2], the Ki is 0.0398 to 0.316 nM.
In the case of `COC(=O)N1CCc2nnc(-c3cnc4ccc(-c5c[nH]nc5-c5cc(Cl)ccc5F)nc4c3)cc2C1` [Compound 1-126, methyl 3-[6-[3-(5-chloro-2-fluoro-phenyl)-1H-pyrazol-4-yl]-1,5-naphthyridin-3-yl]-7,8-dihydro-5H-pyrido[4,3-c]pyridazine-6-carboxylate], in assay [1], the IC50 is 25.1 to 158 nM. Besides, the Ki in assay [2] was 0.0398 to 0.316 nM.
As to `CCOC(=O)CNCCn1cc(-c2cnc3ccc(-c4c[nH]nc4-c4cc(Cl)ccc4F)nc3c2)cn1` [Compound 1-127, ethyl 2-[2-[4-[6-[3-(5-chloro-2-fluoro-phenyl)-1H-pyrazol-4-yl]-1,5-naphthyridin-3-yl]pyrazol-1-yl]ethylamino]acetate], in assay [1], the IC50 was 200 to 1260 nM. Further, in assay [2], the Ki was at most 0.0316 nM.
In the case of `Fc1ccc(Cl)cc1-c1n[nH]cc1-c1ccc2ncc(N3CCn4nc(N5CCNCC5)cc4C3)cc2n1` [Compound 1-128, 2-[3-(5-chloro-2-fluoro-phenyl)-1H-pyrazol-4-yl]-7-(2-piperazin-1-yl-6,7-dihydro-4H-pyrazolo[1,5-a]pyrazin-5-yl)-1,5-naphthyridine], the IC50 in assay [1] was 200 to 1260 nM. In addition, the Ki in assay [2] was 0.0398 to 0.316 nM.
For `Fc1ccc(Cl)cc1-c1n[nH]cc1-c1ccc2ncc(-c3ncc4n3CCN4)cc2n1` [Compound 1-129, 2-[3-(5-chloro-2-fluoro-phenyl)-1H-pyrazol-4-yl]-7-(2,3-dihydro-1H-imidazo[1,2-c]imidazol-5-yl)-1,5-naphthyridine] the same measures were 200 to 1260 nM and 0.398 to 3.16 nM.
As to `O=C(O)[C@H]1CN(c2cnc3ccc(-c4c[nH]nc4-c4cc(Cl)ccc4F)nc3c2)CCN1` [Compound 1-130, (2R)-4-[6-[3-(5-chloro-2-fluoro-phenyl)-1H-pyrazol-4-yl]-1,5-naphthyridin-3-yl]piperazine-2-carboxylic acid], in assay [1], the IC50 was 200 to 1260 nM. The Ki in assay [2] is 0.398 to 3.16 nM.
`CNCCn1cc(-c2cnc3ccc(-c4c[nH]nc4-c4cc(Cl)ccc4F)nc3c2)nn1` [Compound 1-131, 2-[4-[6-[3-(5-chloro-2-fluoro-phenyl)-1H-pyrazol-4-yl]-1,5-naphthyridin-3-yl]triazol-1-yl]-N-methyl-ethanamine]: the IC50 in assay [1] was at most 20 nM. Besides, in assay [2], the Ki is 0.0398 to 0.316 nM.
As for `O=C(NCCN1CCCC1)[C@H]1CN(c2cnc3ccc(-c4c[nH]nc4-c4cc(Cl)ccc4F)nc3c2)CCN1` [Compound 1-132, (2R)-4-[6-[3-(5-chloro-2-fluoro-phenyl)-1H-pyrazol-4-yl]-1,5-naphthyridin-3-yl]-N-(2-pyrrolidin-1-ylethyl)piperazine-2-carboxamide], the IC50 in assay [1] is 200 to 1260 nM. For the same compound, in assay [2], the Ki was 0.0398 to 0.316 nM.
On to `O=C(O)C1CN(CCNc2cnc3ccc(-c4c[nH]nc4-c4cc(Cl)ccc4F)nc3c2)CCN1` (stereo not drawn) [Compound 1-133, 4-[2-[[6-[3-(5-chloro-2-fluoro-phenyl)-1H-pyrazol-4-yl]-1,5-naphthyridin-3-yl]amino]ethyl]piperazine-2-carboxylic acid], for which the IC50 in assay [1] was 200 to 1260 nM. The Ki in assay [2] is 0.0398 to 0.316 nM.
As for `COC(=O)[C@H]1CN(c2cnc3ccc(-c4c[nH]nc4-c4cc(Cl)ccc4F)nc3c2)CCN1CCN` [Compound 1-134, methyl (2R)-1-(2-aminoethyl)-4-[6-[3-(5-chloro-2-fluoro-phenyl)-1H-pyrazol-4-yl]-1,5-naphthyridin-3-yl]piperazine-2-carboxylate], the IC50 in assay [1] was 25.1 to 158 nM. Moreover, in assay [2], the Ki was 0.398 to 3.16 nM.
Take `NC1CCN(c2cnc3ccc(-c4c[nH]nc4-c4cc(Cl)ccc4F)nc3c2)CC1` [Compound 1-135, 1-[6-[3-(5-chloro-2-fluoro-phenyl)-1H-pyrazol-4-yl]-1,5-naphthyridin-3-yl]piperidin-4-amine]: the IC50 in assay [1] was 25.1 to 158 nM. For the same compound, the Ki in assay [2] is 0.0398 to 0.316 nM.
For `COC(=O)CC1CN(c2cnc3ccc(-c4c[nH]nc4-c4cc(Cl)ccc4F)nc3c2)CCN1` (stereo not drawn) [Compound 1-136, methyl 2-[4-[6-[3-(5-chloro-2-fluoro-phenyl)-1H-pyrazol-4-yl]-1,5-naphthyridin-3-yl]piperazin-2-yl]acetate], in assay [1], the IC50 was at most 20 nM. For the same compound, the Ki in assay [2] was 0.0398 to 0.316 nM.
In the case of `CN1CCN(c2ccc(Nc3cnc4ccc(-c5nc[nH]c5-c5cc(Cl)ccc5F)nc4c3)nc2)CC1` [Compound 2-1, 6-(5-(5-chloro-2-fluorophenyl)-1H-imidazol-4-yl)-N-(5-(4-methylpiperazin-1-yl)pyridin-2-yl)-1,5-naphthyridin-3-amine], the IC50 in assay [1] was 25.1 to 158 nM. For the same compound, in assay [2], the Ki was 0.0398 to 0.316 nM.
Take `CC(C)N1CCN(CCNc2cnc3ccc(-c4nc[nH]c4-c4cc(Cl)ccc4F)nc3c2)CC1` [Compound 2-2, 6-[5-(5-chloro-2-fluoro-phenyl)-1H-imidazol-4-yl]-N-[2-(4-isopropylpiperazin-1-yl)ethyl]-1,5-naphthyridin-3-amine]: in assay [1], the IC50 was 25.1 to 158 nM. For the same compound, the Ki in assay [2] is 0.0398 to 0.316 nM.
As to `CC1(C)CCCN1CCNc1cnc2ccc(-c3nc[nH]c3-c3cc(Cl)ccc3F)nc2c1` [Compound 2-3, 6-[5-(5-chloro-2-fluoro-phenyl)-1H-imidazol-4-yl]-N-[2-(2,2-dimethylpyrrolidin-1-yl)ethyl]-1,5-naphthyridin-3-amine], the IC50 in assay [1] was 25.1 to 158 nM. Besides, in assay [2], the Ki was 0.0398 to 0.316 nM.
For `Fc1ccc(Cl)cc1-c1[nH]cnc1-c1ccc2ncc(Nc3ccc(N4CCNCC4)cn3)cc2n1` [Compound 2-4, 6-[5-(5-chloro-2-fluoro-phenyl)-1H-imidazol-4-yl]-N-(5-piperazin-1-yl-2-pyridyl)-1,5-naphthyridin-3-amine] the same measures were 25.1 to 158 nM and 0.0398 to 0.316 nM.
As for `CC(C)N1CCN(c2ccc(Nc3cnc4ccc(-c5nc[nH]c5-c5cc(Cl)ccc5F)nc4c3)nc2)CC1` [Compound 2-5, 6-(5-(5-chloro-2-fluorophenyl)-1H-imidazol-4-yl)-N-(5-(4-isopropylpiperazin-1-yl)pyridin-2-yl)-1,5-naphthyridin-3-amine], the IC50 in assay [1] was 25.1 to 158 nM. Besides, the Ki in assay [2] is 0.0398 to 0.316 nM.
With `CN(C)C1CCN(c2cnc3ccc(-c4nc[nH]c4-c4cc(Cl)ccc4F)nc3c2)CC1` [Compound 2-6, 1-(6-(5-(5-chloro-2-fluorophenyl)-1H-imidazol-4-yl)-1,5-naphthyridin-3-yl)-N,N-dimethylpiperidin-4-amine], the IC50 in assay [1] is 25.1 to 158 nM. Further, the Ki in assay [2] is 0.0398 to 0.316 nM.
With `Fc1ccc(Cl)cc1-c1[nH]cnc1-c1ccc2ncc(N3CCCNCC3)cc2n1` [Compound 2-7, 2-[5-(5-chloro-2-fluoro-phenyl)-1H-imidazol-4-yl]-7-(1,4-diazepan-1-yl)-1,5-naphthyridine], the IC50 in assay [1] was 25.1 to 158 nM. For the same compound, the Ki in assay [2] is 0.398 to 3.16 nM.
Take `Fc1ccc(Cl)cc1-c1[nH]cnc1-c1ccc2ncc(N3CCNCC3)cc2n1` [Compound 2-8, 2-[5-(5-chloro-2-fluoro-phenyl)-1H-imidazol-4-yl]-7-piperazin-1-yl-1,5-naphthyridine]: in assay [1], the IC50 is at most 20 nM. Moreover, the Ki in assay [2] was 0.0398 to 0.316 nM.
With `CNC1CCN(c2cnc3ccc(-c4nc[nH]c4-c4cc(Cl)ccc4F)nc3c2)CC1` [Compound 2-9, 1-[6-[5-(5-chloro-2-fluoro-phenyl)-1H-imidazol-4-yl]-1,5-naphthyridin-3-yl]-N-methyl-piperidin-4-amine], in assay [1], the IC50 is 25.1 to 158 nM. The Ki in assay [2] is at most 0.0316 nM.

The values above are taken from patent US11730720B2, “ALK5 inhibitors” (THERAVANCE BIOPHARMA R&D IP, LLC, priority 2018, dated 2023).
